# Tests used:
# [1] = test system: Rhinovirus-3(HRV-3); assay: Preventive administration: drug pre-mixed with virus, protection of HeLa cells from CPE; type: cell-based; conditions: drug 100 ng/ml, virus about 100 TCID50, 33° C., three days, FIG. 1
# Experimental: (§1) HeLa cells (self-preserved in the laboratory)
# (§2) Rhinovirus-3(HRV-3) (ATCC: VR-1113)
# Principle: the drug and the virus were pre-mixed and incubated to block the procedure of viral uncoating and invasion into cells.
# Methods: the drug at a concentration of 100 ng/ml was placed into a 12-well plate, then viral dose at TCID50 value of about 100 was added, after 0.5 h, 500,000 cells were added into each well, and incubated at 33° C. After three days, when the control group presented 100% cytopathic effect (CPE), the effects of the drug for preventing cells from being phagocytized were observed, and expressed as cell protection rate (%).
# [2] = test system: rhinovirus; assay: Ex vivo anti-rhinovirus screening: ACh-induced tension of rabbit tracheal rings exposed to rhinovirus; conditions: for Tension, average: drug 100 μg/ml plus rhinovirus, rabbit tracheal rings
# [3] = test system: Rhinovirus-3(HRV-3); assay: Therapeutic administration: drug added after viral infection of adherent HeLa cells, protection from CPE; type: cell-based; conditions: drug 100 ng/ml added 0.5 h after virus (about 100 TCID50), 33° C., three days, FIG. 2
# Experimental: as §1, §2
# Method: 500,000 cells were added into each well, incubated at 33° C. overnight for adherence, then viral dose at TCID50 value of about 100 was added, the culture medium was removed by absorption after 0.5 h, the drug was added into a 12-well plate at a concentration of 100 ng/ml, the total volume of the reaction system was 2 ml. After three days, when the virus control group presented 100% cytophagocytesis (CPE), the effects of the drug for preventing cells from being phagocytized were observed.
molecule,measurement,setting,value
"Cc1cccc(C)c1OCCN1CCN(c2cc(Cl)nnc2Cl)CC1 [Example 4, 3,6-dichloro-4-{4-[2-(2,6-dimethyl-phenoxyethyl)]-piperazin-1-yl}pyridazine]","effects of the drug for preventing cells from being phagocytized, cell protection rate",[1],better effects
"CCOC(=O)c1ccc(OCCN2CCN(c3cc(Cl)nnc3Cl)CC2)nc1 [Example 31, 6-{2-[4-(3,6-dichloro-pyridazin-4-yl)-piperazin-1-yl]-ethoxy}-nicotinic acid ethyl ester]","Tension, average",[2]; Ach concentration (log M) −3,1.95 g
same,"Tension, average",[2]; Ach concentration (log M) −3.7,1.86 g
same,"Tension, average",[2]; Ach concentration (log M) −4,1.72 g
same,"Tension, average",[2]; Ach concentration (log M) −4.3,1.54 g
same,"Tension, average",[2]; Ach concentration (log M) −4.7,1.30 g
same,"Tension, average",[2]; Ach concentration (log M) −5,1.00 g
same,"Tension, average",[2]; Ach concentration (log M) −5.3,0.73 g
same,"Tension, average",[2]; Ach concentration (log M) −5.7,0.35 g
same,"Tension, average",[2]; Ach concentration (log M) −6,0.11 g
same,"Tension, average",[2]; Ach concentration (log M) −7,0.00 g
same,effect on the rhinovirus-caused excessive increase of Ach-induced tracheal smooth muscular tension,"[2]; drug 100 μg/ml, FIG. 3",obviously inhibit the excessive increase of Ach-induced tracheal smooth muscular tension caused by rhinovirus
same,effects of the drug for preventing cells from being phagocytized,[3],better effects
same,"effects of the drug for preventing cells from being phagocytized, cell protection rate",[1],better effects
"COC(=O)c1ccc(OCCN2CCN(c3cc(Cl)nnc3Cl)CC2)nc1 [Example 32, 6-{2-[4-(3,6-dichloropyridazin-4-yl)piperazin-1-yl]-ethoxy}-nicotinic acid methyl ester]","effects of the drug for preventing cells from being phagocytized, cell protection rate",[1],better effects
"4-{2-[4-(3,6-dichloropyridazin-4-yl)-piperazin]-1-yl)-ethoxy]-benzoic acid isopropyl ester [Example 13]","effects of the drug for preventing cells from being phagocytized, cell protection rate",[1],better effects
